From PubChem BioAssay AID588426 (Johns Hopkins Ion Channel Center, 2011)
Calls of active or inactive are those of the source.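 How the source made its calls: active means blocks KCNQ2 potassium channel current at some tested dose, with a fitted dose response curve; inactive means the rest.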

Target: Potassium voltage-gated channel subfamily KQT member 2 (Rattus norvegicus) (UniProt O88943)
Test: KCNQ2 channel current inhibitors, SAR follow-up, orthogonal assay for KCNQ2 inhibitor project, automated electrophysiology, CHO cells, CRC2 (AID 588426)
Conditions: KCNQ2-CHO automated patch clamp current

Sequence of Potassium voltage-gated channel subfamily KQT member 2 (Rattus norvegicus) (O88943 whole entry, looked up): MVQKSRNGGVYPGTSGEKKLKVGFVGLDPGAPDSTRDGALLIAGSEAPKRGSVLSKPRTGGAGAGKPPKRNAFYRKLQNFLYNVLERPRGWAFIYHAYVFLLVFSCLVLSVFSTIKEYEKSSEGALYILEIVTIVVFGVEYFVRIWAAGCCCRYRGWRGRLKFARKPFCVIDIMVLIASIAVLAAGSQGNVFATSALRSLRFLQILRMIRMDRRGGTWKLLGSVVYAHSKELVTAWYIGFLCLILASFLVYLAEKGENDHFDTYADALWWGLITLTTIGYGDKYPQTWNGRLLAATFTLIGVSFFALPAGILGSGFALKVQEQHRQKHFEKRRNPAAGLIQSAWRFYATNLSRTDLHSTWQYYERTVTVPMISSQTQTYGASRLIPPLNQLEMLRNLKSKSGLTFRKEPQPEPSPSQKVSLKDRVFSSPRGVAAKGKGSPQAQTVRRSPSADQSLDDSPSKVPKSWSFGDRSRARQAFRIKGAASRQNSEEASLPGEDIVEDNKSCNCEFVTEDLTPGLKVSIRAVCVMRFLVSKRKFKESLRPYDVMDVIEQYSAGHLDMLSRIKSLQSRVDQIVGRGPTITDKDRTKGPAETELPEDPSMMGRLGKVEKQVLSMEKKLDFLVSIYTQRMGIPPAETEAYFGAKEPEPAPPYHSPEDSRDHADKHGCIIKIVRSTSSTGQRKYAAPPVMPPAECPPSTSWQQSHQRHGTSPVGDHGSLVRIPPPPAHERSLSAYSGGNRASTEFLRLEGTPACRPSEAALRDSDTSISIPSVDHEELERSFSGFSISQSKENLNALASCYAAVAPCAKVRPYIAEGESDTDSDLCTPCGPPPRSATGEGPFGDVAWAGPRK

IC50 [nM] | SMILES
24600 | O=C(Nc1ccccc1N1CCCC1)[C@H]1CCCc2ccccc21
3500 | O=C(Nc1ccccc1N1CCCC1)C(c1ccccc1)C1CC1 (configuration not stated)
20200 | CCC(C(=O)Nc1ccccc1N1CCCC1)c1ccc(OC)c(OC)c1 (configuration not stated)
940 | CC[C@@H](C(=O)Nc1ccccc1N1CCCC1)c1ccccc1
390 | CCC(C(=O)Nc1ccccc1N1CCCC1)c1cccc(C(F)(F)F)c1 (configuration not stated)
950 | O=C(Cc1ccccc1Cl)Nc1ccccc1N1CCCC1
2350 | COc1cccc(CC(=O)Nc2ccccc2N2CCCC2)c1
800 | O=C(Cc1ccc(Cl)cc1)Nc1ccccc1N1CCCC1
2290 | O=C(Nc1ccccc1N1CCCC1)[C@@H]1CCc2ccccc21
80 | CC[C@H](C(=O)Nc1ccccc1N1CCCC1)c1ccccc1
1070 | O=C(Cc1ccc(Cl)c(Cl)c1)Nc1ccccc1N1CCCC1
350 | O=C(Cc1cccc(C(F)(F)F)c1)Nc1ccccc1N1CCCC1
5130 | C[C@@H](C(=O)Nc1ccccc1N1CCCC1)c1ccccc1
210 | CCC(C(=O)Nc1ccc(N2CCCC2)cc1)c1ccccc1 (configuration not stated)
360 | CC[C@@H](C(=O)Nc1ccc(N2CCCC2)cc1)c1ccccc1
1320 | Cc1cccc(CC(=O)Nc2ccccc2N2CCCC2)c1
3310 | CCC(C(=O)Nc1ccccc1N1CCCC1)c1ccccc1Cl (configuration not stated)
14100 | O=C(Nc1ccccc1N1CCCC1)[C@H]1CCc2ccccc21
240 | CCC(C(=O)Nc1ccccc1N1CCCC1)c1cccc(Cl)c1 (configuration not stated)
380 | CCC(C(=O)Nc1ccccc1N1CCCC1)c1ccc(OC)cc1 (configuration not stated)
990 | O=C(Nc1ccccc1N1CCCC1)C(F)c1ccccc1 (configuration not stated)
740 | O=C(Cc1ccccc1)Nc1ccccc1N1CCCC1
120 | CCC(C(=O)Nc1ccccc1N1CCCC1)c1cccc(OC)c1 (configuration not stated)
330 | CCC(C(=O)Nc1ccccc1N1CCCC1)c1cccc(C)c1 (configuration not stated)

IC50 [nM] | SMILES
280 | CCC(C(=O)Nc1ccccc1N1CCCC1)c1ccc(Cl)cc1 (configuration not stated)
1750 | COc1ccc(CC(=O)Nc2ccccc2N2CCCC2)cc1
330 | O=C(Nc1ccccc1N1CCCC1)C1CCc2ccccc21 (configuration not stated)
1730 | O=C(Cc1ccc(F)c(F)c1)Nc1ccccc1N1CCCC1
320 | CCCC(C(=O)Nc1ccccc1N1CCCC1)c1ccccc1 (configuration not stated)
560 | O=C(Cc1c(F)cccc1F)Nc1ccccc1N1CCCC1
360 | CCC(C(=O)Nc1ccccc1N1CCCC1)c1cccc(F)c1 (configuration not stated)
12700 | CCC(C(=O)Nc1ccccc1N1CCOCC1)c1ccccc1 (configuration not stated)
700 | O=C(Cc1ccc(F)cc1)Nc1ccccc1N1CCCC1
2220 | CC(C)CC(C(=O)Nc1ccccc1N1CCCC1)c1ccccc1 (configuration not stated)
170 | CCC(C(=O)Nc1ccccc1N1CCCC1)c1ccc(F)c(F)c1 (configuration not stated)
590 | C[C@H](C(=O)Nc1ccccc1N1CCCC1)c1ccccc1
260 | CC(C(=O)Nc1ccccc1N1CCCC1)c1ccccc1 (configuration not stated)
29900 | O=C(Nc1ccccc1N1CCCC1)[C@@H]1CCCc2ccccc21
170 | O=C(Cc1cccc(Cl)c1)Nc1ccccc1N1CCCC1
490 | O=C(Cc1cccc(F)c1)Nc1ccccc1N1CCCC1
17400 | CCC(C(=O)Nc1ccccc1N(C)C)c1ccccc1 (configuration not stated)
5270 | CCC(C(=O)Nc1ccccc1-n1cccc1)c1ccccc1 (configuration not stated)
130 | CCC(C(=O)Nc1ccccc1N1CCCC1)c1ccc(F)cc1 (configuration not stated)
440 | CCC(C(=O)Nc1ccccc1N1CCCC1)c1ccccc1F (configuration not stated)
470 | CCC(C(=O)Nc1ccccc1N1CCCC1)c1ccc(Cl)c(Cl)c1 (configuration not stated)
160 | CCC(C(=O)Nc1ccccc1N1CCCC1)c1ccccc1 (configuration not stated)
15000 | CCC(C(=O)Nc1ccccc1Cl)c1ccccc1 (configuration not stated)
110 | CC[C@H](C(=O)Nc1ccc(N2CCCC2)cc1)c1ccccc1

Same assay, conditions: KCNQ2-CHO automated patch clamp current; at 30 µM (top of the series)

current change, negative = inhibition | SMILES
inactive | CCC(C(=O)Nc1ccccc1OC)c1ccccc1 (configuration not stated)
inactive | CC(C)(C(=O)Nc1ccccc1N1CCCC1)c1ccccc1
inactive | O=C(Nc1ccccc1N1CCCC1)C1CCOc2ccccc21 (configuration not stated)
inactive | CCC(C(=O)Nc1ccccc1N(C)Cc1ccccc1)c1ccccc1 (configuration not stated)
inactive | CCC(C(=O)Nc1ccccc1N1C(=O)CCC1=O)c1ccccc1 (configuration not stated)
inactive | CCC(C(=O)Nc1ccccc1N(C)CC)c1ccccc1 (configuration not stated)
inactive | CCC(C(=O)Nc1ccccc1-n1ccnc1)c1ccccc1 (configuration not stated)
inactive | CCC(C(=O)Nc1ccccc1N1CCCCCCC1)c1ccccc1 (configuration not stated)
inactive | CCC(C(=O)Nc1cccc(N2CCCC2)c1)c1ccccc1 (configuration not stated)
inactive | O=C(Nc1ccccc1N1CCCC1)C1(c2ccccc2)CC1
inactive | CCC(C(=O)Nc1ccccc1N1CCCCC1)c1ccccc1 (configuration not stated)
inactive | CCC(C(=O)Nc1ccccc1-n1c(C)ccc1C)c1ccccc1 (configuration not stated)
inactive | O=C(Cc1ccccc1F)Nc1ccccc1N1CCCC1
inactive | CC(C)C(C(=O)Nc1ccccc1N1CCCC1)c1ccccc1 (configuration not stated)
